From ChEMBL document CHEMBL3526096, “Species differences in biliary clearance and possible relevance of hepatic uptake and efflux transporters involvement” (Drug Metab Dispos, 2013)

Experiments:
[1] = Drug excretion in iv dosed rat assessed as compound excreted into bile; type: ADME, organism-based; settings: read-out: Drug excretion
[2] = Drug excretion in iv dosed dog assessed as compound excreted into bile; type: ADME, organism-based, Canis lupus familiaris; settings: read-out: Drug excretion
[3] = Drug excretion in iv dosed human assessed as compound excreted into bile by T-tube method; type: ADME, organism-based; settings: read-out: Drug excretion
[4] = test system: Homo sapiens; experiment: Total biliary clearance in iv dosed human after 6 hrs by T-tube method; type: ADME, organism-based, Bile; settings: in vivo
[5] = test system: Homo sapiens; experiment: Unbound biliary clearance in iv dosed human after 6 hrs; type: ADME, organism-based, Bile; settings: in vivo
[6] = test system: Rattus norvegicus; experiment: Total biliary clearance in iv dosed Wistar rat; type: ADME, organism-based, Bile; settings: in vivo
[7] = test system: Rattus norvegicus; experiment: Unbound biliary clearance in iv dosed Wistar rat; type: ADME, organism-based, Bile; settings: in vivo
[8] = Drug excretion in iv dosed Wistar rat assessed as compound excreted into bile; type: ADME, organism-based; settings: read-out: Drug excretion
[9] = Drug excretion in iv dosed human assessed as compound excreted into bile after 6 hrs; type: ADME, organism-based; settings: read-out: Drug excretion

dose excreted [1] [%] | dose excreted [2] [%] | dose excreted [3] [%] | CL [4] [mL/min/kg] | CL free [5] [mL/min/kg] | CL [6] [mL/min/kg] | CL free [7] [mL/min/kg] | dose excreted [8] [%] | dose excreted at 6 h [9] [%] | SMILES
30 | 2 | 0.1 | – | – | – | – | – | – | Cc1nnc(SCC2=C(C(=O)O)N3C(=O)[C@@H](NC(=O)Cn4cnnn4)[C@H]3SC2)s1 [CEFAZOLIN]
– | – | – | 0.012 | 0.048 | 5 | 29.41 | 33 | 0.4 | Cn1nnnc1SCC1=C(C(=O)O)N2C(=O)[C@@H](NC(=O)[C@H](O)c3ccccc3)[C@H]2SC1 [CEFAMANDOLE]
